Measured values published in the supplement of paper PMC10307832.

How the values were obtained:
Test in all cases: relative viability (nuclei count vs DMSO), 5 days (fraction); higher = more cells survive
Masitinib + Alpelisib = compound: Cc1ccc(NC(=O)c2ccc(CN3CCN(C)CC3)cc2)cc1Nc1nc(-c2cccnc2)cs1 [Masitinib] + Cc1nc(NC(=O)N2CCC[C@H]2C(N)=O)sc1-c1ccnc(C(C)(C)C(F)(F)F)c1 [Alpelisib] (partner 2 µM)
How it was run: (§1)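 After 5 days of treatment, lung cancer cells in 1536-well plates were fixed and stained in a single step (final 0.05% Triton X-100, 1% formaldehyde, 1 ug/ml Hoechst) and their nuclei counted on 4× images. Treatment had been applied by pin tool the day after seeding as one drug alone or as a fixed anchor-drug dose with five library-drug doses (not always all listed) in √10 steps. Relative viability is the nuclei count of treated wells divided by that of vehicle wells, and values are medians of duplicate plates.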

[1] = compound: CC1=CC(=CC=C1)NC2=NC(=CS2)C3=CC=NC=C3 + N=C(N)NC(=N)NCCc1ccccc1 [Phenformin] (partner 250 µM)
How it was run: as §1

[2] = compound: CC1=CC(=CC=C1)NC2=NC(=CS2)C3=CC=NC=C3 + CC1(C)CCC(c2ccc(Cl)cc2)=C(CN2CCN(c3ccc(C(=O)NS(=O)(=O)c4ccc(N[C@H](CCN5CCOCC5)CSc5ccccc5)c(S(=O)(=O)C(F)(F)F)c4)cc3)CC2)C1 [Navitoclax] (partner 0.5 µM)
How it was run: as §1

Masitinib + Luminespib = compound: Cc1ccc(NC(=O)c2ccc(CN3CCN(C)CC3)cc2)cc1Nc1nc(-c2cccnc2)cs1 [Masitinib] + CCNC(=O)c1noc(-c2cc(C(C)C)c(O)cc2O)c1-c1ccc(CN2CCOCC2)cc1 [Luminespib] (partner 0.01 µM)
How it was run: as §1

Cell Line | relative viability (Masitinib + Alpelisib; first compound 0.01 µM) | relative viability (Masitinib + Alpelisib; first compound 0.03162 µM) | relative viability (Masitinib + Alpelisib; first compound 0.1 µM) | relative viability (Masitinib + Alpelisib; first compound 0.3162 µM) | relative viability (Masitinib + Alpelisib; first compound 1 µM) | relative viability ([1]; first compound 0.253 µM) | relative viability ([1]; first compound 0.8 µM) | relative viability ([1]; first compound 2.53 µM) | relative viability ([1]; first compound 8 µM) | relative viability ([2]; first compound 0.08 µM) | relative viability ([2]; first compound 0.253 µM) | relative viability ([2]; first compound 0.8 µM) | relative viability ([2]; first compound 2.53 µM) | relative viability ([2]; first compound 8 µM) | relative viability ([1]; first compound 0.08 µM) | relative viability (Masitinib + Luminespib; first compound 0.01 µM) | relative viability (Masitinib + Luminespib; first compound 0.03162 µM) | relative viability (Masitinib + Luminespib; first compound 0.1 µM) | relative viability (Masitinib + Luminespib; first compound 0.3162 µM) | relative viability (Masitinib + Luminespib; first compound 1 µM)
HCC-78 | 0.342 | 0.188 | 0.438 | 0.306 | 0.332 | 0.628 | 0.527 | 0.631 | 0.75 | 0.67 | 0.883 | 0.841 | 0.746 | 0.788 | – | – | – | – | – | –
HCC-366 | 0.33 | 0.294 | 0.376 | 0.315 | 0.382 | 0.601 | 0.576 | 0.607 | 0.505 | 0.934 | 1.04 | 1.04 | 0.884 | 0.949 | 0.635 | – | – | – | – | –
HCC-827 | 0.91 | 0.994 | 1.1 | 0.928 | 0.997 | 0.383 | 0.447 | 0.445 | 0.38 | 0.989 | 0.937 | 0.956 | 1.02 | 0.935 | 0.416 | 0.597 | 0.906 | 0.816 | 0.558 | 0.583
HOP-62 | 0.777 | 1.09 | 1.18 | 1.07 | 0.83 | 0.609 | 0.804 | 0.722 | 0.65 | 0.865 | 1.01 | 1.13 | 1.11 | 1.01 | 0.683 | 0.75 | 0.839 | 0.949 | 0.968 | 0.855
IA-LM | 0.823 | 0.758 | 1.07 | 0.762 | 0.787 | – | – | – | – | 0.74 | – | 0.769 | 0.439 | 0.401 | – | – | – | – | – | –
LC-2-ad | 0.866 | 0.822 | 0.843 | 0.815 | 0.844 | – | 0.568 | 0.585 | 0.523 | 0.395 | 0.379 | 0.383 | 0.464 | 0.278 | 0.556 | 0.918 | 1.18 | 1.04 | 0.916 | 0.929
LCLC-97TM1 | 0.25 | 0.241 | 0.275 | 0.402 | 0.27 | 0.414 | 0.456 | 0.456 | 0.483 | – | – | 0.641 | 0.385 | 0.418 | 0.424 | – | 0.777 | 0.857 | 0.946 | 0.857
LCLC-103H | 0.711 | 0.913 | 0.917 | 0.992 | 0.971 | 0.308 | 0.327 | 0.309 | 0.27 | – | – | – | – | – | 0.284 | 0.727 | 0.932 | 1.04 | 0.748 | 1.03
LK-2 | 1.28 | 0.609 | 1.38 | 1.15 | 1.3 | 0.365 | 0.584 | – | 0.44 | 0.917 | 0.958 | 0.901 | – | 1.46 | – | 0.183 | 0.183 | 0.132 | 0.151 | 0.175
LOU-NH91 | 0.711 | 0.662 | 0.819 | 0.683 | 0.713 | 0.364 | 0.63 | 0.591 | 0.744 | 0.611 | 0.619 | 0.625 | 0.774 | 0.434 | 0.468 | 0.307 | 0.32 | 0.337 | 0.272 | 0.372
LU99A | 0.554 | 0.544 | 0.549 | 0.547 | 0.449 | 0.765 | 0.863 | 0.884 | 0.821 | – | 0.861 | 0.838 | 0.835 | 0.978 | 0.762 | 0.3 | 0.219 | 0.271 | 0.353 | 0.191
NCI-H358 | 0.734 | 0.802 | 0.813 | 0.788 | 0.852 | 0.35 | 0.353 | 0.402 | 0.387 | – | – | – | – | – | 0.371 | 0.21 | 0.299 | 0.37 | 0.342 | 0.186
NCI-H522 | – | – | – | – | – | 0.687 | 0.654 | 0.613 | 0.655 | – | – | – | – | – | 0.682 | 1.18 | 1.16 | 1.05 | 1.13 | 0.94
NCI-H650 | 1.14 | 1.03 | 1.17 | 1.31 | 1.08 | 0.407 | 0.476 | 0.372 | 0.502 | – | – | – | – | – | 0.426 | 0.7 | 0.908 | 0.798 | 0.853 | 0.766
NCI-H661 | 0.748 | 0.577 | 0.623 | 0.384 | 0.47 | 0.3 | 0.278 | 0.285 | 0.284 | – | – | – | – | – | 0.281 | 0.831 | 0.916 | 0.951 | 0.897 | 0.903
NCI-H1299 | 1.1 | 1.1 | 1.27 | 1.11 | 1.05 | – | – | – | – | 0.981 | 0.99 | 0.986 | 1.07 | 1.01 | – | – | – | – | – | –
NCI-H1563 | 1.02 | 0.964 | 0.839 | 1.13 | 0.931 | 0.634 | 0.691 | 0.733 | 0.657 | – | – | – | – | – | 0.725 | 0.509 | 0.537 | 0.524 | 0.532 | 0.505
NCI-H1623 | – | – | – | – | – | 0.585 | 0.564 | 0.513 | 0.565 | – | – | – | – | – | 0.577 | 0.493 | 0.451 | 0.814 | 0.427 | 0.506
NCI-H1650 | – | – | – | – | – | 0.328 | 0.527 | 0.344 | 0.245 | 1.07 | 0.938 | 0.935 | 1.13 | 0.811 | 0.419 | 0.195 | 0.227 | 0.221 | 0.191 | 0.206
NCI-H1703 | 0.226 | 0.255 | 0.228 | 0.171 | 0.197 | – | – | – | – | 0.92 | 1.13 | 1.38 | 1.26 | 1.07 | – | – | – | – | – | –
NCI-H2342 | – | – | – | – | – | 0.582 | 0.603 | 0.518 | 0.568 | – | – | – | – | – | 0.483 | 0.775 | 0.79 | 0.707 | 0.727 | 0.791
SW 900 | – | – | – | – | – | 0.446 | 0.673 | 0.461 | 0.532 | – | – | – | – | – | 0.555 | 0.165 | 0.156 | 0.163 | 0.158 | 0.185
